Our source for the IC50 values is patent US20250214977A1, “STAT6 INHIBITORS AND USES THEREOF” (Kymera Therapeutics, Inc., priority 2024, published 2025).

The structures appear in SMILES notation. Some results are limits rather than exact numbers.

The subject of this experiment is Phosphorylation of STAT6 in human A549 cells. The experiment is described as follows: Phosphorylated STAT6 (pSTAT6) flow cytometry assay in human A549 cells. It counts as cell-based. The note with it: read-out: STAT6 IL4 pSTAT6 assay in A549 cells: Average IC50. The source says: Example 3. Phosphorylated STAT6 (pSTAT6) Flow Cytometry Assay in Human A549 Cells
Phosphorylation of STAT6 in human A549 cells was quantitatively measured using flow cytometry technology.
On the technique in general: A flow cytometer gives signals particle by particle.

The IC50 is the concentration that gives 50% inhibition. For `COc1cc(F)cnc1N1CCN(C(=O)c2cc3c(-c4ccc(C(=O)N(C)C)cc4)cc(C4=CCCN(C(=O)CCn5ccnn5)C4)c(F)c3[nH]2)CC1` [Example I-1165], the IC50 is less than 100 nM.

On to `COc1cnccc1-c1cc(C2=CCCN(C(C)=O)C2)c(F)c2[nH]c(C(=O)N3CCN(c4ncc(F)cc4OC)CC3)cc12` [Example I-697], for which the half-maximal inhibitory concentration (IC50) is more than 100000 nM.

`COc1cc(F)ccc1-c1cc(C2=CCCN(C(=O)CCn3ccnn3)C2)c(F)c2[nH]c(C(=O)N3CCN(c4ncc(F)cc4OC)CC3)cc12` [Example I-613]: the concentration for half-maximal inhibition (IC50) is less than 100 nM.

With `COc1cccc(N2CCN(C(=O)c3cc4c(-c5cnccc5OC)cc(C5=CCCN(C(=O)CCn6ccnn6)C5)c(F)c4[nH]3)CC2)n1` [Example I-440], the IC50 is less than 100 nM.

Consider `CC(=O)N1CCC=C(c2cc(-c3cccc4c3OCCO4)c3cc(C(=O)N(C)C)[nH]c3c2F)C1` [Example I-1095], for which the IC50 was less than 100 nM.

`COc1cc(F)cnc1N1CCN(C(=O)c2cc3c(/C=C/C4CCCCC4)cc(C4=CCCN(C(=O)CCn5ccnn5)C4)c(F)c3[nH]2)CC1` [Example I-1163]: the IC50 is 100 to 1000 nM.

On to `COc1ccccc1-c1cc(C2=CCCN(C(=O)CCn3ccnn3)C2)c(F)c2[nH]c(C(=O)N3CCN(c4cn(C)c5ncncc45)CC3)cc12` [Example I-1016], for which the IC50 is less than 100 nM.

For `COc1ccccc1-c1cc(C2=CCCN(C(=O)CCn3ccnn3)C2)c(F)c2[nH]c(C(=O)N3CCN(c4cc5ccccc5cc4OC)CC3)cc12` [Example I-342], the IC50 is less than 100 nM.

Regarding `COc1ncccc1-c1cc(C2=CCCN(C(=O)CCn3ccnn3)C2)c(F)c2[nH]c(C(=O)N3CCN(c4ncccc4OC4CC4)CC3)cc12` [Example I-595], the IC50 is less than 100 nM.

For `COc1ccccc1-c1cc(C2=CCCN(C(=O)CCn3ccnn3)C2)c(F)c2[nH]c(C(=O)N3CCO[C@H](C)C3)cc12` [Example I-1007], the IC50 was less than 100 nM.

In the case of `CN(C)C(=O)c1cc2c(F)c(C3=CCCN(C(=O)[C@@H]4Cc5ccccc5CN4C=O)C3)ccc2o1` (single isomer, unassigned) [Example I-375], the IC50 lay within 100 to 1000 nM.

With `COc1ccccc1-c1cc(C2=CCCN(C(=O)CCn3ccnn3)C2)c(F)c2[nH]c(C(=O)N3CCOCC3)cc12` [Example I-985], the IC50 was less than 100 nM.

`COc1ccccc1-c1cc(C2=CCCN(C(=O)CCn3ccnn3)C2)c(F)c2[nH]c(C(=O)N3CCN(CCCF)CC3)cc12` [Example I-843]: the IC50 was less than 100 nM.

`COC(=O)CCC#Cc1cccc2c1CC(C(=O)N1CCC=C(c3ccc4oc(C(=O)N(C)C)cc4c3)C1)N(C=O)C2` (stereo not shown) [Example I-802, Methyl 5-(3-(5-(2-(dimethylcarbamoyl)benzofuran-5-yl)-1,2,3,6-tetrahydropyridine-1-carbonyl)-2-formyl-1,2,3,4-tetrahydroisoquinolin-5-yl)pent-4-ynoate]: the half-inhibitory concentration (IC50) lay within 100 to 1000 nM.

In the case of `COc1ccccc1-c1cc(C2=CCCN(C(=O)CCn3ccnn3)C2)c(F)c2[nH]c(C(=O)N3CCN(c4cccnc4)CC3)cc12` [Example I-774], the half-inhibitory concentration (IC50) was less than 100 nM.

As to `COc1cc(F)cnc1N1CCN(C(=O)c2cc3c(-c4cccc(OC(C)C)c4)cc(C4=CCCN(C(=O)CCn5ccnn5)C4)c(F)c3[nH]2)CC1` [Example I-638], the IC50 was less than 100 nM.

With `CN(C)C(=O)c1cc2c(F)c(C3=CCCN(C(=O)C4Cc5ccccc5CN4C=O)C3)ccc2o1` (stereo not shown) [Example I-1192], the IC50 lay within 1000 to 10000 nM.

As to `COc1cnc(N2CCN(C(=O)c3cc4c(-c5cnccc5OC)cc(C5=CCCN(C(=O)CCn6ccnn6)C5)c(F)c4[nH]3)CC2)c(OC)c1` [Example I-437], the half-inhibitory concentration (IC50) was less than 100 nM.

For `CCc1cc(C)ncc1-c1cc(C2=CCCN(C(=O)CCn3cccn3)C2)c(F)c2[nH]c(C(=O)N3CCN(c4cc(C)ccc4OC)CC3)cc12` [Example I-515], the concentration for half-maximal inhibition (IC50) is less than 100 nM.

As to `COc1cc(F)cnc1N1CCN(C(=O)c2cc3c(C4CC4)cc(C4=CCCN(C(=O)CCn5ccnn5)C4)c(F)c3[nH]2)CC1` [Example I-694], the half-inhibitory concentration (IC50) was more than 100000 nM.

With `COc1ccccc1C(=O)N1CCN(C(=O)c2cc3c(-c4ccccc4OC)cc(C4=CCCN(C(=O)CCn5ccnn5)C4)c(F)c3[nH]2)CC1` [Example I-991], the IC50 was less than 100 nM.

For `CCc1nc(C)ccc1-c1cc(C(=O)N2CCN(c3nc(C)c(F)cc3OC)CC2)cc2cc(C3=CCCN(C(=O)CC(=O)O)C3)n(CC3CC3)c12` [Example I-792], the IC50 was less than 100 nM.

For the molecule `COc1cccnc1N1CCN(C(=O)c2cc3c(-c4nc(C)[nH]c4C)cc(C4=CCCN(C(=O)CCn5ccnn5)C4)c(F)c3[nH]2)CC1` [Example I-572], the IC50 was less than 100 nM.

With `COc1cc(F)cnc1N1CCN(C(=O)c2cc3c(-c4cnn(C)c4-c4ccccc4)cc(C4=CCCN(C(=O)CCn5ccnn5)C4)c(F)c3[nH]2)CC1` [Example I-621], the IC50 was less than 100 nM.

Turning to `CCOc1ccncc1-c1cc(C2=CCCN(C(=O)CCn3ccnn3)C2)c(F)c2[nH]c(C(=O)N3CCN(c4ncncc4OC)CC3)cc12` [Example I-1108], the concentration for half-maximal inhibition (IC50) is less than 100 nM.

Consider `COc1ccccc1-c1cc(C2=CCCN(C(=O)CCn3ccnn3)C2)c(F)c2[nH]c(C(=O)NC(C#N)c3ccccc3)cc12` (stereo not shown) [Example I-772], for which the concentration for half-maximal inhibition (IC50) is more than 100000 nM.

On to `COc1cc(F)cnc1N1CCN(C(=O)c2cc3c(C4=Cc5ccccc5C4)cc(C4=CCCN(C(=O)CCn5ccnn5)C4)c(F)c3[nH]2)CC1` [Example I-1161], for which the concentration for half-maximal inhibition (IC50) fell in the range of 100 to 1000 nM.

For `Cc1cc(C)c(-c2cc(C3=CCCN(C(=O)CCn4ccnn4)C3)cc3cc(C(=O)N(C)C)oc23)cc1C` [Example I-856], the half-inhibitory concentration (IC50) was less than 100 nM.

As for `CCCCOc1ccc(-c2cc(C3=CCCN(C(=O)CCn4ccnn4)C3)c(F)c3[nH]c(C(=O)N4CCN(c5ncc(F)cc5OC)CC4)cc23)cc1` [Example I-1127], the IC50 lay within 100 to 1000 nM.

In the case of `CC(=O)N1CCC=C(c2cc(-c3ccc(C(F)(F)F)cc3O)c3cc(C(=O)N(C)C)[nH]c3c2F)C1` [Example I-888], the half-maximal inhibitory concentration (IC50) fell in the range of 100 to 1000 nM.

`COc1cccnc1N1CCN(C(=O)c2cc3c(-c4cccc(Cl)c4OC)cc(C4=CCCN(C(=O)CCn5ccnn5)C4)c(F)c3[nH]2)CC1` [Example I-411]: the IC50 was more than 100000 nM.

Turning to `CC(=O)N1CCC=C(c2cc(-c3ccccc3N(C)C)c3cc(C(=O)N(C)C)[nH]c3c2F)C1` [Example I-1093], the IC50 fell in the range of 100 to 1000 nM.

As for `COc1ccccc1-c1cc(C2=CCCN(C(=O)CCn3ccnn3)C2)c(F)c2[nH]c(C(=O)N3CCc4c(cnn4C)C3)cc12` [Example I-518], the half-maximal inhibitory concentration (IC50) was less than 100 nM.

As for `C#Cc1cc(C2=CCCN(C(=O)CCn3ccnn3)C2)cc2cc(C(=O)N(C)C)oc12` [Example I-373, 5-(1-(3-(1H-1,2,3-triazol-1-yl)propanoyl)-1,2,5,6-tetrahydropyridin-3-yl)-7-ethynyl-N,N-dimethylbenzofuran-2-carboxamide], the concentration for half-maximal inhibition (IC50) fell in the range of 100 to 1000 nM.

In the case of `CCc1cc(C)ncc1-c1cc(C2=CCCN(C(=O)CCn3ccnn3)C2)c(F)c2[nH]c(C(=O)N3Cc4cnn(C)c4C3)cc12` [Example I-531], the IC50 was less than 100 nM.

Consider `COc1ccncc1-c1cc(C2=CCCN(C(C)=O)C2)c(F)c2[nH]c(C(=O)N3Cc4cnn(C)c4C3)cc12` [Example I-701], for which the 50% inhibitory concentration (IC50) was 10000 to 100000 nM.

Take `COC(=O)c1ccc(OC)c(N2CCN(C(=O)c3cc4c(-c5ccccc5OC)cc(C5=CCCN(C(=O)CCn6ccnn6)C5)c(F)c4[nH]3)CC2)n1` [Example I-360]: the IC50 is less than 100 nM.
